Patent US20110212053A1, “PHOSPHATIDYLINOSITOL 3 KINASE INHIBITORS” (priority 2008, published 2011)
“And” between values parts separate entries of the source, which are not always exact repeats. Equal entries are not always repeated.

Experiments:
Assay type in all cases: biochemical
PI3Kα = target: T1, PI3Kα (Homo sapiens, UniProt P42336); assay: KinaseGLO luminescent PI3-kinase assay, PI3Kα
T1 construct: purchased Invitrogen or Millipore
Procedure: (§1) Compound Preparation: KinaseGLO assay: 30× stocks of inhibitors were prepared in DMSO. A 10 mM master stock was prepared and all other stocks were generated by serial dilution of this master stock in DMSO. The final concentration of DMSO in the kinase reaction was 3.3% (v/v).
(§2) PI3-Kinase Assay: The KinaseGLO® Luminescent Kinase Assay (Promega) is a luciferin-luciferase based luminescent assay that utilizes a proprietary thermostable luciferase to quantify the ATP remaining in a solution after a kinase reaction. The luminescent signal generated using KinaseGLO® directly correlates with ATP concentration, and therefore inversely correlates with kinase activity.
PI3K enzyme sample was thawed and diluted to 100 ng/μL in enzyme dilution buffer (50 mM HEPES, pH7.5, 3.0 mM MgCl2, 1.0 mM EGTA) and stored on ice. PI3Kα enzyme was diluted to a final concentration of 1 ng/μL in reaction buffer (for PI3Kα; 50 mM HEPES, pH7.5, 100 mM NaCl, 2.0 mM DTT, 3.0 mM MgCl2, 1.0 mM EGTA, 10 μM ATP) and gently mixed. 25 μL of this kinase reaction was then aliquoted into test wells in a Microfluor2 white 96-well plate (Thermo Scientific). As a preincubation step, 1 μl of 30× compound dilutions was added to the appropriate test wells to generate a ten point dose-response ranging from 0.0 μM-10 μM inhibitor. The enzyme-inhibitor mixture was then incubated for 30 minutes at 4° C. After this preincubation, […] (50 μM final concentration) was added to each test well to initiate the kinase reaction. Reactions were incubated at room temperature for 2 hours with moderate shaking. The KinaseGLO® luminescent reagent (Promega) was prepared according to the manufacturer's instructions. Both the KinaseGLO® buffer and substrate were allowed to thaw and equilibrate at room temperature for two hours prior to mixing and use. The PI3-kinase reaction was terminated by the addition of 30 μL of reconstituted KinaseGLO® reagent to each reaction well and then incubated in the dark for 10 minutes at room temperature. Luminescent signal was detected using a SpectraMax M5 (Molecular Devices). Maximal luminescence (no PI3K activity/maximal PI3K inhibition) was determined from reaction buffer plus SC-PI substrate only controls. The minimal signal (maximal PI3K activity) was determined by the 0.0 μM compound (DMSO only) control. IC50 values were calculated via non-linear regression using GraphPad Prism data analysis software.
(§3) Compounds were assayed against the Class I PI3Kα, PI3Kβ, PI3Kγ, PI3Kδ, PI3Kα(H1047R) and PI3Kα(E545K) in the KinaseGLO assay as described in Example 2, and against the Class IV PI3K mTOR in the radiometric assay. IC50 values (μM) were determined using 8-10 point half-log dose dilutions and calculated via nonlinear regression analysis using Graphpad Prism data analysis software.

PI3Kγ = target: T2, PI3Kγ (Homo sapiens, UniProt P48736); assay: KinaseGLO luminescent PI3-kinase assay, PI3Kγ
T2 construct: purchased Invitrogen or Millipore
T2 sequence (P48736 whole entry): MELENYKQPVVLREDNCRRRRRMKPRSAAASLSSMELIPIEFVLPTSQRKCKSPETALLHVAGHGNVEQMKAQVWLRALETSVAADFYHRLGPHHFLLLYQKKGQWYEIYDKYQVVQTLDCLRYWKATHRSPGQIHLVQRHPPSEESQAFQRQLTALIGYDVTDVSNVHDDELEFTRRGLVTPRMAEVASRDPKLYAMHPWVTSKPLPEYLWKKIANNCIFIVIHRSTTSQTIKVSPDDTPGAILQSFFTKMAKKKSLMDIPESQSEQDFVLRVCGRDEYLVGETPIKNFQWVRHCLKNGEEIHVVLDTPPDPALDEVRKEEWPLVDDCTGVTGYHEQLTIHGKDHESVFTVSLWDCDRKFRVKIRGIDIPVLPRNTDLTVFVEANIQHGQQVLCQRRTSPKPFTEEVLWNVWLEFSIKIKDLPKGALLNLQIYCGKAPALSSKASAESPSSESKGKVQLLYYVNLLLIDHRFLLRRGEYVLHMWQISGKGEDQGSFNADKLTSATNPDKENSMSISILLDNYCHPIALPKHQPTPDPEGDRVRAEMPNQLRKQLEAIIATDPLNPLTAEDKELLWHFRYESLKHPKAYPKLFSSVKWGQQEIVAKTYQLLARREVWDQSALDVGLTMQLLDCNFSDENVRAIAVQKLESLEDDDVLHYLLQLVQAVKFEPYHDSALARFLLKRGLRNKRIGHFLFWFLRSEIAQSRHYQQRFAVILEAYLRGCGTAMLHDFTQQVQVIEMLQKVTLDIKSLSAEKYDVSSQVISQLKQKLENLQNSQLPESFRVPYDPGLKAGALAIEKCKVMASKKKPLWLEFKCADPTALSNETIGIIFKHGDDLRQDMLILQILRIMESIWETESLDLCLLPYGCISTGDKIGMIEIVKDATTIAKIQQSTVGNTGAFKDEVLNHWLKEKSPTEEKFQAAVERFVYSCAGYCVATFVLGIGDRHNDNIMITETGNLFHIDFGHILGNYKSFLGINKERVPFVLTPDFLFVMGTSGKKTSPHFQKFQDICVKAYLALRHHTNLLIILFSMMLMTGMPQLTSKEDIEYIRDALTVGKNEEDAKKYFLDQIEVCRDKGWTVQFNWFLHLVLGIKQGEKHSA
Procedure: as §1, §2
(§4) PI3K enzyme sample was thawed and diluted to 100 ng/μL in enzyme dilution buffer (50 mM HEPES, pH7.5, 3.0 mM MgCl2, 1.0 mM EGTA) and stored on ice. PI3Kα enzyme was diluted to a final concentration of 1 ng/μL in reaction buffer (for PI3Kα; 50 mM HEPES, pH7.5, 100 mM NaCl, 2.0 mM DTT, 3.0 mM MgCl2, 1.0 mM EGTA, 10 μM ATP) and gently mixed. 25 μL of this kinase reaction was then aliquoted into test wells in a Microfluor2 white 96-well plate (Thermo Scientific). As a preincubation step, 1 μl of 30× compound dilutions was added to the appropriate test wells to generate a ten point dose-response ranging from 0.0 μM-10 μM inhibitor. […] Luminescent signal was detected using a SpectraMax M5 (Molecular Devices). Maximal luminescence (no PI3K activity/maximal PI3K inhibition) was determined from reaction buffer plus SC-PI substrate only controls. The minimal signal (maximal PI3K activity) was determined by the 0.0 μM compound (DMSO only) control. IC50 values were calculated via non-linear regression using GraphPad Prism data analysis software.
as §3

PI3Kδ = target: T3, PI3Kδ (Homo sapiens, UniProt O00329); assay: KinaseGLO luminescent PI3-kinase assay, PI3Kδ
T3 construct: purchased Invitrogen or Millipore
T3 sequence (O00329 whole entry): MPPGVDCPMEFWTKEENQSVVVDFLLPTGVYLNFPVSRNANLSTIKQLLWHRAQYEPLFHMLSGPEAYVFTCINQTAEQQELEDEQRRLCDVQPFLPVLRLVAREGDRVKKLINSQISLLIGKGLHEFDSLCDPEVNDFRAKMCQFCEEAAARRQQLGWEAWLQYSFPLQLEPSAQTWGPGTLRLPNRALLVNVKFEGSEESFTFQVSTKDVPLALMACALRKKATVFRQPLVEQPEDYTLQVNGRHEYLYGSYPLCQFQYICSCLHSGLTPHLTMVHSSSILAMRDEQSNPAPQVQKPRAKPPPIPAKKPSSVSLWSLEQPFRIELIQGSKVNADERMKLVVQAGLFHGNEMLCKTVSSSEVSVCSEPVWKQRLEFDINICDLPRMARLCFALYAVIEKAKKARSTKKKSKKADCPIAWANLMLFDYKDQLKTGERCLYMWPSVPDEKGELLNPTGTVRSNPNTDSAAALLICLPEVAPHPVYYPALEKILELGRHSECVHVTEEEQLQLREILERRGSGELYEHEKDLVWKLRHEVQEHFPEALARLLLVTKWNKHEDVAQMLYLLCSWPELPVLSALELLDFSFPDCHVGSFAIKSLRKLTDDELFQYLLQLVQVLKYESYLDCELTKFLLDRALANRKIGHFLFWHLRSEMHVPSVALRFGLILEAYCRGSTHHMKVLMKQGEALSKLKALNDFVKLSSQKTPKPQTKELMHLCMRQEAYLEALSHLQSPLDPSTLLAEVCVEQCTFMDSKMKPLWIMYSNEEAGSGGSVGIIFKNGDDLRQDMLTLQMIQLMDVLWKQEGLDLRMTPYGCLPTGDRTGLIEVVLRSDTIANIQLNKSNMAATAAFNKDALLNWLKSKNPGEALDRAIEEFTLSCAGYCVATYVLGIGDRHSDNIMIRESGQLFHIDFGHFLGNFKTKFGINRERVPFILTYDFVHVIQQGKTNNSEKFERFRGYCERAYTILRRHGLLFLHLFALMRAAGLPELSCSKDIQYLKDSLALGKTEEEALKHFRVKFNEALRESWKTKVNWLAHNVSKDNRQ
T3 sequence (P27986 whole entry partner): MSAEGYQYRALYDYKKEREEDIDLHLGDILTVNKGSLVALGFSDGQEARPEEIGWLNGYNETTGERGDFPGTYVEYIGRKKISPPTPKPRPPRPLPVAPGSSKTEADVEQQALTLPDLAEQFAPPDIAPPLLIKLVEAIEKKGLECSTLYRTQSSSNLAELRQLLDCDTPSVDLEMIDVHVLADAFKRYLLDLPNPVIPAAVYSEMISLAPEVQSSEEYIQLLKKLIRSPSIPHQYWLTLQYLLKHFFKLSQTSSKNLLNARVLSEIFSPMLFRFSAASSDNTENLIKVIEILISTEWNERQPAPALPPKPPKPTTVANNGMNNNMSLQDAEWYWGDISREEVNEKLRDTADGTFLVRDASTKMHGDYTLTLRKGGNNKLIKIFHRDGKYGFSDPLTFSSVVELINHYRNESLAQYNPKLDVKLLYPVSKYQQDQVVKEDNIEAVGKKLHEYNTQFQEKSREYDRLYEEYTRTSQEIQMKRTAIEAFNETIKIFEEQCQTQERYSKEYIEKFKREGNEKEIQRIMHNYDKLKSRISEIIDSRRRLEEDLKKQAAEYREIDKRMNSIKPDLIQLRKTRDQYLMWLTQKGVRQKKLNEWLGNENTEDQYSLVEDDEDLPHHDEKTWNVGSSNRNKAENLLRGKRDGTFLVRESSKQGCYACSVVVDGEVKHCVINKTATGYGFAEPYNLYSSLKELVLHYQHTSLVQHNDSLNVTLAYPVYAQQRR
Procedure: as §1, §2, §4, §3

PI3Kβ = target: T4, PI3Kβ (Homo sapiens, UniProt P42338); assay: KinaseGLO luminescent PI3-kinase assay, PI3Kβ
T4 construct: purchased Invitrogen or Millipore
T4 sequence (P42338 whole entry): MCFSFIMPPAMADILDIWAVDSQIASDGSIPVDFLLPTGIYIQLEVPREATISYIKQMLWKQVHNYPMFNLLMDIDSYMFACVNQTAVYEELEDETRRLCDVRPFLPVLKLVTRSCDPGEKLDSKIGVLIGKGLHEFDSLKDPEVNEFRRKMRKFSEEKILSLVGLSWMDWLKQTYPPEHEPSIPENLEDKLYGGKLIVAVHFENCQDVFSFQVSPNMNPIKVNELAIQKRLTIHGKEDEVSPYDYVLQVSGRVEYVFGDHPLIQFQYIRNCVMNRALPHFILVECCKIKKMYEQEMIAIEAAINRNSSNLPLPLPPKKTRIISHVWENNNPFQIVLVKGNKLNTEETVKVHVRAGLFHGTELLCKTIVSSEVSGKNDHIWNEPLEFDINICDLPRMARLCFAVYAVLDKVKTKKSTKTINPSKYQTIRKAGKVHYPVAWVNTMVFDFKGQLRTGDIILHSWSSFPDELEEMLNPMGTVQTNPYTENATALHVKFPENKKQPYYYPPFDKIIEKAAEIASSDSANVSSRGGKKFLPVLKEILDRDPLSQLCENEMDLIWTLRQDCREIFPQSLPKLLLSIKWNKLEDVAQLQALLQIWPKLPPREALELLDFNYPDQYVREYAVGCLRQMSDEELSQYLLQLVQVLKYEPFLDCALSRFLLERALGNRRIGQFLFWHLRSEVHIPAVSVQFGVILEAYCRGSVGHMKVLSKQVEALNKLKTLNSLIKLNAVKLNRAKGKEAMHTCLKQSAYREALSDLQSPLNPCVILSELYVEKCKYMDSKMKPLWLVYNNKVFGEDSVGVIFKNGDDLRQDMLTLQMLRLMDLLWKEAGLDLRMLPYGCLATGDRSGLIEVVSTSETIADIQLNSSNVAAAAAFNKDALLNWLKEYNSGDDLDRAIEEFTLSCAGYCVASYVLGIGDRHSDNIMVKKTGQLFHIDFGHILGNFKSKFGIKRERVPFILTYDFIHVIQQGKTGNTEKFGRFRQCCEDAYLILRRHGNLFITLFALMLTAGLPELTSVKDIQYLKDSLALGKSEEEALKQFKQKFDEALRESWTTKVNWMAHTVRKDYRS
T4 sequence (P27986 whole entry partner): as the sequence (P27986 whole entry partner) above
Procedure: as §1, §2, §4, §3

MELK = target: T5, MELK (Homo sapiens, UniProt Q14680); assay: MELK kinase assay (KinaseGLO)
T5 construct: purchased Invitrogen or Millipore
Procedure: as §1
MELK kinase assay: The ability of compounds to inhibit MELK was also determined using the KinaseGLO assay. Briefly, MELK enzymes was thawed and diluted to a final concentration of 2.64 ng/μL in reaction buffer (50 mM HEPES, pH7.5, 100 mM NaCl, 2.0 mM DTT, 3.0 mM MgCl2, 1.0 mM EGTA, 10 μM ATP). 19 μl of this kinase reaction mixture was aliquoted into test wells (50 ng MELK/well) in a Microfluor2 white 96-well plate (Thermo Scientific). As a preincubation step, 1 μl of 30× compound dilutions was added to the appropriate test wells to generate a ten point dose-response ranging from 0.0 μM-10 μM inhibitor, and incubated for 15 minutes at 4° C. The reaction was started by addition of 10 μL of 150 μM ZIPtide peptide substrate resuspended in reaction buffer (50 μM final concentration of ZIPtide). Reactions were incubated at room temperature for 2 hours prior to addition of 30 μL of KinaseGLO reagent and development as described. Maximal luminescence (no MELK activity/maximal MELK inhibition) was determined from reaction buffer plus peptide substrate only controls. The minimal signal (maximal MELK activity) was determined by the 0.0 μM compound (DMSO only) control. IC50 values were calculated via non-linear regression using GraphPad Prism data analysis software. […]
Compounds of the invention were assayed against the select kinases using the KinaseGLO assay (MELK) or the radiometric assay (PIM, TRKC, PDGFRα(D842V), MNK1 and mTOR). IC50 values were determined using 8-10 point half-log dose dilutions and calculated via nonlinear regression analysis using Graphpad Prism data analysis software.

PI3Kα(E545K) = target: T6, PI3Kα(E545K) (Homo sapiens, UniProt P42336, E545K); assay: KinaseGLO luminescent PI3-kinase assay, mutant PI3Kα(E545K)
T6 construct: purchased Invitrogen or Millipore
Procedure: as §1, §2, §4, §3

PI3Kα(H1047R) = target: T7, PI3Kα(H1047R) (Homo sapiens, UniProt P42336, H1047R); assay: KinaseGLO luminescent PI3-kinase assay, mutant PI3Kα(H1047R)
T7 construct: purchased Invitrogen or Millipore
Procedure: as §1, §2, §4, §3

T1 sequence (P42336 whole entry): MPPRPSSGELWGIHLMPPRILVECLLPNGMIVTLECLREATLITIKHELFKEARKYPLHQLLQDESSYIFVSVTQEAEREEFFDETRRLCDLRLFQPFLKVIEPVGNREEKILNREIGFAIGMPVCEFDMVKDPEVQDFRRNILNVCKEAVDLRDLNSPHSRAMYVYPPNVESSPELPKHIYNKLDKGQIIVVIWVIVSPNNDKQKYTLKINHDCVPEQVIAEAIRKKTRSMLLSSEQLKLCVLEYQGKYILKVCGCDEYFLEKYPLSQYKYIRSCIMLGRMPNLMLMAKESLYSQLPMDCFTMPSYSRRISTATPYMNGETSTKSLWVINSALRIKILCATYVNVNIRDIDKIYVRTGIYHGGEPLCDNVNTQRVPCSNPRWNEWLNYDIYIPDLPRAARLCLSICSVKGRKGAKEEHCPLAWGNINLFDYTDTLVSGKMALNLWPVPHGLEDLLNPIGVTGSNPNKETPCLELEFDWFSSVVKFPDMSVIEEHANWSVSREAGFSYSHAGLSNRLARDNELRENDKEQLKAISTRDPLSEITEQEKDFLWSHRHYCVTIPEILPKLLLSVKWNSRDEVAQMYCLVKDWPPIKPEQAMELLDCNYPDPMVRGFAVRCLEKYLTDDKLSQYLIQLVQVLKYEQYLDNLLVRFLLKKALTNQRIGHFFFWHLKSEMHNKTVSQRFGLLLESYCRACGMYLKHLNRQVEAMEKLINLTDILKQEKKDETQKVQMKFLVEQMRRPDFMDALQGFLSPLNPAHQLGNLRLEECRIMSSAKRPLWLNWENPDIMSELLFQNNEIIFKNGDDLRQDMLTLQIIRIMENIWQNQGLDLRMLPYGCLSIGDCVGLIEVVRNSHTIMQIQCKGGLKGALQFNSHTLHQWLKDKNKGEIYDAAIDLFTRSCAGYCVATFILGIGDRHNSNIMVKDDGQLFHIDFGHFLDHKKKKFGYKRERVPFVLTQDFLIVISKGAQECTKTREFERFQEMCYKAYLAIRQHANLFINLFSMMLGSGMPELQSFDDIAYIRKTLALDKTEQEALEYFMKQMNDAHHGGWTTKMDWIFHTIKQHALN
T1 sequence (P27986 whole entry partner): as the sequence (P27986 whole entry partner) above

Row | IC50 (PI3Kα) | IC50 (PI3Kγ) | IC50 (PI3Kδ) | IC50 (PI3Kβ) | IC50 (MELK) | IC50 (PI3Kα(E545K)) | IC50 (PI3Kα(H1047R)) | SMILES
1 | < 10 nM | 10 to 25 nM | 10 to 35 nM | > 50 nM | > 30 nM | 15 to 55 nM | > 25 nM | CC(C)(C#N)c1ccc(-c2n[nH]c3cnc4ccc(-c5ccc6ncccc6c5)cc4c23)cc1 [Compound 1110, 2-methyl-2-(4-(8-(quinolin-6-yl)-3H-pyrazolo[3,4-c]quinolin-1-yl)phenyl)propanenitrile]
2 | > 20 nM | 10 to 25 nM | < 15 nM and 10 to 35 nM | > 50 nM | > 30 nM | 15 to 55 nM | > 25 nM | CC(C)(C#N)c1ccc(-c2n[nH]c3cnc4ccc(-c5cnc6ccccc6c5)cc4c23)cc1 [Compound 1078, 2-methyl-2-(4-(8-(quinolin-3-yl)-3H-pyrazolo[3,4-c]quinolin-1-yl)phenyl)propanenitrile]
3 | < 10 nM | 10 to 25 nM | 10 to 35 nM | 35 to 50 nM | < 12 nM | < 10 nM | 5 to 25 nM | CC(C)(C#N)c1ccc(-c2n[nH]c3cnc4ccc(-c5cccnc5)cc4c23)cc1 [Compound 1107, 2-methyl-2-(4-(8-(pyridin-3-yl)-3H-pyrazolo[3,4-c]quinolin-1-yl)phenyl)propanenitrile]
